{"source": "ChEMBL document CHEMBL3112416", "about": "“Designing analogs of ticlopidine, a wall teichoic acid inhibitor, to avoid formation of its oxidative metabolites” (Bioorg Med Chem Lett, 2014)", "key": {"[1]": {"assay": "Displacement of UDP-[14C]GlcNAc from TarO (unknown origin) after 2.5 hrs by scintillation counting analysis"}, "Staphylococcus aureus [2]": {"test_system": "Staphylococcus aureus", "assay": "Ratio of MIC for community acquired methicillin-resistant Staphylococcus aureus USA300 in presence of targocil to MIC for community acquired methicillin-resistant Staphylococcus aureus USA300 by checkerboard broth microdilution assay", "format": "functional"}, "Staphylococcus aureus [3]": {"test_system": "Staphylococcus aureus", "assay": "Ratio of MIC for community acquired methicillin-resistant Staphylococcus aureus USA300 in presence of cefuroxime to MIC for community acquired methicillin-resistant Staphylococcus aureus USA300 by checkerboard broth microdilution assay", "format": "functional"}}}
{"smiles": "c1cc2c(s1)CCNC2", "values": [{"measurement": "IC50", "setting": "[1]", "result": 4300, "unit": "µM"}, {"measurement": "fractional inhibitory concentration index (FICI)", "setting": "Staphylococcus aureus [2]", "result": 2}, {"measurement": "fractional inhibitory concentration index (FICI)", "setting": "Staphylococcus aureus [3]", "result": 2}]}
{"smiles": "c1ccc(CN2CCc3ccccc3C2)cc1", "values": [{"measurement": "IC50", "setting": "[1]", "result": 270, "unit": "µM"}, {"measurement": "fractional inhibitory concentration index (FICI)", "setting": "Staphylococcus aureus [2]", "result": 1.3}, {"measurement": "fractional inhibitory concentration index (FICI)", "setting": "Staphylococcus aureus [3]", "result": 0.63}]}
{"smiles": "Clc1ccccc1CN1CCCCC1", "values": [{"measurement": "IC50", "setting": "[1]", "result": 1100, "unit": "µM"}, {"measurement": "fractional inhibitory concentration index (FICI)", "setting": "Staphylococcus aureus [2]", "result": 2}, {"measurement": "fractional inhibitory concentration index (FICI)", "setting": "Staphylococcus aureus [3]", "result": 2}]}
{"smiles": "Clc1ccccc1CN1CCCC1", "values": [{"measurement": "fractional inhibitory concentration index (FICI)", "setting": "Staphylococcus aureus [2]", "result": 2}, {"measurement": "fractional inhibitory concentration index (FICI)", "setting": "Staphylococcus aureus [3]", "result": 2}]}
{"smiles": "CCN1CCN(Cc2ccccc2Cl)CC1", "values": [{"measurement": "fractional inhibitory concentration index (FICI)", "setting": "Staphylococcus aureus [2]", "result": 2}, {"measurement": "fractional inhibitory concentration index (FICI)", "setting": "Staphylococcus aureus [3]", "result": 2}]}
{"smiles": "Clc1ccccc1CN1CCc2ccccc2C1", "values": [{"measurement": "IC50", "setting": "[1]", "result": 520, "unit": "µM"}, {"measurement": "fractional inhibitory concentration index (FICI)", "setting": "Staphylococcus aureus [2]", "result": 8.1}, {"measurement": "fractional inhibitory concentration index (FICI)", "setting": "Staphylococcus aureus [3]", "result": 0.13}]}
{"smiles": "Clc1cccc(CN2CCc3ccccc3C2)c1", "values": [{"measurement": "IC50", "setting": "[1]", "result": 270, "unit": "µM"}, {"measurement": "fractional inhibitory concentration index (FICI)", "setting": "Staphylococcus aureus [2]", "result": 8.1}, {"measurement": "fractional inhibitory concentration index (FICI)", "setting": "Staphylococcus aureus [3]", "result": 2}]}
{"smiles": "Clc1ccc(CN2CCc3ccccc3C2)cc1", "values": [{"measurement": "fractional inhibitory concentration index (FICI)", "setting": "Staphylococcus aureus [2]", "result": 8.1}, {"measurement": "fractional inhibitory concentration index (FICI)", "setting": "Staphylococcus aureus [3]", "result": 2}]}
{"smiles": "Cc1ccccc1CN1CCc2ccccc2C1", "values": [{"measurement": "fractional inhibitory concentration index (FICI)", "setting": "Staphylococcus aureus [2]", "result": 8.1}, {"measurement": "fractional inhibitory concentration index (FICI)", "setting": "Staphylococcus aureus [3]", "result": 0.13}]}
{"smiles": "Fc1ccccc1CN1CCc2ccccc2C1", "values": [{"measurement": "fractional inhibitory concentration index (FICI)", "setting": "Staphylococcus aureus [2]", "result": 8}, {"measurement": "fractional inhibitory concentration index (FICI)", "setting": "Staphylococcus aureus [3]", "result": 0.25}]}
{"smiles": "O=[N+]([O-])c1ccccc1CN1CCc2ccccc2C1", "values": [{"measurement": "fractional inhibitory concentration index (FICI)", "setting": "Staphylococcus aureus [2]", "result": 8.3}, {"measurement": "fractional inhibitory concentration index (FICI)", "setting": "Staphylococcus aureus [3]", "result": 0.19}]}
{"smiles": "FC(F)(F)c1ccccc1CN1CCc2ccccc2C1", "values": [{"measurement": "IC50", "setting": "[1]", "result": 350, "unit": "µM"}, {"measurement": "fractional inhibitory concentration index (FICI)", "setting": "Staphylococcus aureus [2]", "result": 8.3}, {"measurement": "fractional inhibitory concentration index (FICI)", "setting": "Staphylococcus aureus [3]", "result": 0.094}]}
{"smiles": "c1ccc2c(c1)CCN(Cc1ccncc1)C2", "values": [{"measurement": "fractional inhibitory concentration index (FICI)", "setting": "Staphylococcus aureus [2]", "result": 2}, {"measurement": "fractional inhibitory concentration index (FICI)", "setting": "Staphylococcus aureus [3]", "result": 2}]}
{"smiles": "c1ccc2c(c1)CCN(Cc1ccc3ccccc3c1)C2", "values": [{"measurement": "IC50", "setting": "[1]", "result": 220, "unit": "µM"}, {"measurement": "fractional inhibitory concentration index (FICI)", "setting": "Staphylococcus aureus [2]", "result": 8.1}, {"measurement": "fractional inhibitory concentration index (FICI)", "setting": "Staphylococcus aureus [3]", "result": 0.31}]}
{"smiles": "Clc1ccccc1CN1CCC2CCCCC2C1", "note": "(stereo not drawn)", "values": [{"measurement": "fractional inhibitory concentration index (FICI)", "setting": "Staphylococcus aureus [2]", "result": 2}, {"measurement": "fractional inhibitory concentration index (FICI)", "setting": "Staphylococcus aureus [3]", "result": 2}]}
{"smiles": "Clc1ccc2c(c1)CCN(Cc1ccccc1Cl)C2", "values": [{"measurement": "IC50", "setting": "[1]", "result": 190, "unit": "µM"}, {"measurement": "fractional inhibitory concentration index (FICI)", "setting": "Staphylococcus aureus [2]", "result": 4.5}, {"measurement": "fractional inhibitory concentration index (FICI)", "setting": "Staphylococcus aureus [3]", "result": 2}]}
{"smiles": "Oc1ccc2c(c1)CN(Cc1ccccc1Cl)CC2", "values": [{"measurement": "fractional inhibitory concentration index (FICI)", "setting": "Staphylococcus aureus [2]", "result": 4.5}, {"measurement": "fractional inhibitory concentration index (FICI)", "setting": "Staphylococcus aureus [3]", "result": 2}]}
{"smiles": "Clc1ccccc1C[n+]1ccc2ccccc2c1", "values": [{"measurement": "IC50", "setting": "[1]", "result": "> 5000", "unit": "µM"}, {"measurement": "fractional inhibitory concentration index (FICI)", "setting": "Staphylococcus aureus [2]", "result": 2}, {"measurement": "fractional inhibitory concentration index (FICI)", "setting": "Staphylococcus aureus [3]", "result": 2}]}
{"smiles": "Clc1ccccc1CC1CCc2ccccc2N1", "note": "(stereo not drawn)", "values": [{"measurement": "IC50", "setting": "[1]", "result": 270, "unit": "µM"}, {"measurement": "fractional inhibitory concentration index (FICI)", "setting": "Staphylococcus aureus [2]", "result": 8.3}, {"measurement": "fractional inhibitory concentration index (FICI)", "setting": "Staphylococcus aureus [3]", "result": 0.19}]}
{"smiles": "COC(=O)C(c1ccccc1Cl)N1CCc2ccccc2C1", "note": "(racemic)", "values": [{"measurement": "IC50", "setting": "[1]", "result": 190, "unit": "µM"}, {"measurement": "fractional inhibitory concentration index (FICI)", "setting": "Staphylococcus aureus [2]", "result": 8.2}, {"measurement": "fractional inhibitory concentration index (FICI)", "setting": "Staphylococcus aureus [3]", "result": 0.19}]}
{"smiles": "O=C(O)C(c1ccccc1Cl)N1CCc2sccc2C1", "note": "(racemic)", "values": [{"measurement": "fractional inhibitory concentration index (FICI)", "setting": "Staphylococcus aureus [2]", "result": 2}, {"measurement": "fractional inhibitory concentration index (FICI)", "setting": "Staphylococcus aureus [3]", "result": 0.75}]}
{"smiles": "O=C(O)C(c1ccccc1Cl)N1CCc2ccccc2C1", "note": "(racemic)", "values": [{"measurement": "IC50", "setting": "[1]", "result": 440, "unit": "µM"}, {"measurement": "fractional inhibitory concentration index (FICI)", "setting": "Staphylococcus aureus [2]", "result": 2}, {"measurement": "fractional inhibitory concentration index (FICI)", "setting": "Staphylococcus aureus [3]", "result": 0.75}]}
{"smiles": "O=C(O)C(c1ccccc1C(F)(F)F)N1CCc2ccccc2C1", "note": "(racemic)", "values": [{"measurement": "fractional inhibitory concentration index (FICI)", "setting": "Staphylococcus aureus [2]", "result": 2}, {"measurement": "fractional inhibitory concentration index (FICI)", "setting": "Staphylococcus aureus [3]", "result": 2}]}
{"smiles": "COC(=O)C(c1ccccc1C(F)(F)F)N1CCc2ccccc2C1", "note": "(racemic)", "values": [{"measurement": "fractional inhibitory concentration index (FICI)", "setting": "Staphylococcus aureus [2]", "result": 8.3}, {"measurement": "fractional inhibitory concentration index (FICI)", "setting": "Staphylococcus aureus [3]", "result": 0.13}]}
{"smiles": "NC(=O)C(c1ccccc1C(F)(F)F)N1CCc2ccccc2C1", "note": "(racemic)", "values": [{"measurement": "fractional inhibitory concentration index (FICI)", "setting": "Staphylococcus aureus [2]", "result": 2}, {"measurement": "fractional inhibitory concentration index (FICI)", "setting": "Staphylococcus aureus [3]", "result": 1}]}
{"smiles": "COC(=O)[C@H](c1ccccc1Cl)N1CCc2sccc2C1", "note": "[CLOPIDOGREL]", "values": [{"measurement": "IC50", "setting": "[1]", "result": 150, "unit": "µM"}, {"measurement": "fractional inhibitory concentration index (FICI)", "setting": "Staphylococcus aureus [2]", "result": 8.1}, {"measurement": "fractional inhibitory concentration index (FICI)", "setting": "Staphylococcus aureus [3]", "result": 0.19}]}
{"smiles": "Clc1ccccc1CN1CCc2sccc2C1", "note": "[TICLOPIDINE]", "values": [{"measurement": "IC50", "setting": "[1]", "result": 150, "unit": "µM"}, {"measurement": "fractional inhibitory concentration index (FICI)", "setting": "Staphylococcus aureus [2]", "result": 8.3}, {"measurement": "fractional inhibitory concentration index (FICI)", "setting": "Staphylococcus aureus [3]", "result": 0.13}]}
